In patent publication US20110300229A1, “TREATING OR PREVENTING ROTAVIRUS INFECTION” (FONTERRA CO-OPERATIVE GROUP LIMITED, priority 2007, published 2011):
Values joined by “and” are separate entries in the source; they are usually repeats but may differ in a detail not shown here. Identical values can stand only once. Marks after values point to notes of the source that are not given here.

Test system: human rotavirus strain Wa
Experiment: Rotavirus infection assay in HT29 cells (crystal violet, % uninfected cells)
Format: cell-based
Conditions: for activity in preventing virus infection of the cells: over a range of concentrations
Procedure: The HT29 cell line was used to propagate the human rotavirus strain Wa (neuraminidase resistant) in the presence of 1 μg/ml trypsin in Dulbecco's minimal essential medium (DMEM) supplemented with 10% foetal calf serum and penicillin/streptomycin (100 μg/ml/100 units/ml). Rotavirus was harvested by freeze thawing twice, spun at 750 g to remove cell debris and stored at −80° C. The rotavirus was assayed and found to contain […] plaque forming units (pfu)/ml.
The infection assay used was based on a number of published assays (Scott et al 1979; Smith et al 1979; Guarino et al 1996; Superb et al 2001). Confluent HT29 cells grown in DMEM (seeded at 3×10^5/ml in 96 well plates) were washed twice in sterile PBS. Doubling dilutions of each of the products to be screened (initial concentration 5 mg/ml) were made in the plate in 50 μl volumes of DMEM. Virus was added (10^4 pfu/well) to all wells except the cells only control and plates were then incubated for two hours in 5% CO2 at 37° C. Other controls included virus plus cells, lipids only, pure GM3 and pure GD3. Following the two-hour incubation trypsin was added to all the wells containing virus at a concentration of 2 μg/ml—this step cleaves VP4 to polypeptides VP8 and VP5 and is needed for the virion to penetrate into the cells' interior. Plates were incubated at 37° C. in 5% CO2 for seven days and were checked daily for cytopathic effect in the virus only control wells. Media was removed and plates washed in sterile PBS, air-dried and fixed with methanol for one minute. Plates were air dried and then stained with 100 μl/well of 1% crystal violet (351884W, BDH, England) for five minutes. Plates were washed four times with sterile water to remove excess stain. 100 μl of acetic acid per well was added to solubilise the stain and absorbance was read at a wavelength of 595 nm in a Biorad ELISA plate reader. Each sample was assayed on a minimum of three separate occasions and the percentage of uninfected cells calculated.
Statistical analysis was performed using an unpaired Student t test (InStat for MacIntosh) to compare the effect of the lipid products derived from bovine milk with the virus only control at the lowest dilution of the product.

Substance | Percentage of HT29 cells uninfected by rotavirus (7.8125 μg/ml) | Percentage of HT29 cells uninfected by rotavirus (15.625 μg/ml) | Percentage of HT29 cells uninfected by rotavirus (31.25 μg/ml) | Percentage of HT29 cells uninfected by rotavirus (125 μg/ml) | activity in preventing virus infection of the cells | Percentage of HT29 cells uninfected by rotavirus (62.5 μg/ml) | Percentage of HT29 cells uninfected by rotavirus (250 μg/ml, mean +/− spread)
Monosialoganglioside GM3 | 34 +/− 1.5% | 33 +/− 2.5% | 43+/−10% | 49 +/− 8*** % | showed activity over a range of concentrations | – | –
disialoganglioside GD3 | – | 31 +/− 1.5% | 40+/−3% and 40 +/− 2.5*** % | – | showed activity over a range of concentrations | 59 +/− 1.4*** % | 57 +/− 1*** %
